# Ends that are not written are not given here.
# System: monoclonal antibody M30
# Assay: ELISA reactivity of synthetic peptides with monoclonal antibody M30
# Type: binding, mouse
# Conditions: SEQ ID NO: 1 set at 100
# Description: These peptides having the amino acid sequences SEQ ID NO: 2 and 3 have been synthesized, and in an ELISA they bind to the mAb M 30 [relative activity: 100 for SEQ ID NO: 1; 11 for SEQ ID NO: 2; and 8.3 for SEQ ID NO: 3, respectively]. However, these two peptides are not expected to represent cleaved fragments of CK18 specific for apoptosis, since the mAb M 30 cannot bind to CK18 fragments until they expose the neo-epitope having the C-terminal sequence Ala Leu Asp.
# The oligopeptides made in order to illustrate the invention were synthesized using the multipin peptide synthesis approach using polyethylene supports derivatized with an acid handle (Cf. Valerio, R. M., Bray, A. M. and Maeji, N. J. (1994) Multiple peptide synthesis on acid-labile handle derivatized polyethylene supports. Int. J. Peptide Protein Res. 44:158-165.). The synthesis was carried out on detachable pins grafted with hydroxyethylmethacrylate and functionalized with the trifluoroacetic acid-labile Rink amide forming handle. Peptides representing both the N and C terminal truncation series of the sequence EDFNLGDALD (SEQ ID NO:1) and other sequences were synthesized. Peptides were capped with biotin using the tetra peptide linker sequence—SGSG- or —SGSB- (B=βalanine), and attached to streptavidin coated plates in the enzyme-linked immunosorbent assay.
# In order to characterize the MAb M30-epitope chemically, the M30was tested against a large number of synthetic peptides, that were especially made for this purpose.
row,relative activity (binding to mAb M 30 in ELISA),Substance
1,11,EDGEDFNLGDALDSSNSMQT [SEQ ID NO: 2]
2,100,EDFNLGDALD [SEQ ID NO: 1]
3,8.3,LEDGEDFNLGDALDSSNS [SEQ ID NO: 3]

# Same assay, conditions: biotin-capped peptide attached to streptavidin coated plates, ELISA with MAb M30
row,Substance,Absorbance at 405/492 nm
1,GEDFNLGDALD [47] (OTHER INFORMATION: Description of Artificial Sequence: epitope from mammalian protein) [Peptide 47],1.23
2,LEDGEDFNLGDAL (OTHER INFORMATION: Description of Artificial Sequence: epitope from mammalian protein) [Peptide 63],0.05
3,GDALD (OTHER INFORMATION: Description of Artificial Sequence: epitope from mammalian protein) [Peptide 405],0.1
4,FNLGDALD (OTHER INFORMATION: Description of Artificial Sequence: epitope from mammalian protein) [Peptide 402],0.27
5,LGDALD (OTHER INFORMATION: Description of Artificial Sequence: epitope from mammalian protein) [Peptide 404],0.1
6,DFNLGDALD (OTHER INFORMATION: Description of Artificial Sequence: epitope from mammalian protein) [Peptide 401],0.62
7,DGEDFNLGDALD (OTHER INFORMATION: Description of Artificial Sequence: epitope from mammalian protein) [Peptide 46],0.77
8,LEDGEDFNLGDALDS (OTHER INFORMATION: Description of Artificial Sequence: epitope from mammalian protein) [Peptide 61],0.1
9,GEDFNLGDALD [302] (OTHER INFORMATION: Description of Artificial Sequence: epitope from mammalian protein) [Peptide 302],1.41
10,EDFNLGDALD (OTHER INFORMATION: Description of Artificial Sequence: epitope from mammalian protein) [Peptide 301],1.46
11,EDGEDFNLGDALD (OTHER INFORMATION: Description of Artificial Sequence: epitope from mammalian protein) [Peptide 45],1.05
12,NLGDALD (OTHER INFORMATION: Description of Artificial Sequence: epitope from mammalian protein) [Peptide 403],0.14
13,DALD (OTHER INFORMATION: Description of Artificial Sequence: epitope from mammalian protein) [Peptide 406],0.1

# Same assay, conditions: truncation series of Table 1
row,Substance,activity (reactivity with MAb M30) in words
1,EDFNLGDALD [SEQ ID NO: 1],maximal activity
